In this test the target is T1, Porcine pancreatic α-amylase (Sus scrofa, UniProt P00690).
T1 construct: gene AMY2
T1 sequence (P00690 16-511): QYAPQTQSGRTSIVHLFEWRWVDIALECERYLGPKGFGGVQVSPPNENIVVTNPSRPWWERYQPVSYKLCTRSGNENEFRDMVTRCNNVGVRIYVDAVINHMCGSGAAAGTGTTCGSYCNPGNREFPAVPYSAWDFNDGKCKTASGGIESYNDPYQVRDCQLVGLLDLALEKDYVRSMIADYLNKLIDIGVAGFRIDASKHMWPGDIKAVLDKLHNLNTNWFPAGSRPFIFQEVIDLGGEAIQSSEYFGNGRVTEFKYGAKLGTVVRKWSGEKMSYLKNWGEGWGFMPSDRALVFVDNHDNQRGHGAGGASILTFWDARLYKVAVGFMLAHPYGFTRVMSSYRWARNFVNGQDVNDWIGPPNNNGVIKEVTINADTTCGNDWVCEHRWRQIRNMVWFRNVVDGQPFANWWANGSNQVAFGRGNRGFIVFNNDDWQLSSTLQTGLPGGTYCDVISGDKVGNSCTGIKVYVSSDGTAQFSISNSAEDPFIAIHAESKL
The test can be described thus: starch hydrolysis assay (Bernfeld, reducing sugar at OD540) with commercial enzyme type VI-B. It counts as biochemical.

This note sets out measurements from paper PMC9171587, “Novel α-Amylase Inhibitor Hemi-Pyocyanin Produced by Microbial Conversion of Chitinous Discards” (Marine Drugs, 2022).

`Oc1cccc2nc3ccccc3nc12` [SF-1, hemi-pyocyanin] gave an IC50 of 15.8 µM.
